The numbers were not newly measured in paper PMC2887613 (ChemMedChem, 2009), which cites them from elsewhere.

A word on the EC50: it is the concentration giving half of the maximal effect.

Series [1] addresses T1, rat M4 (Rattus norvegicus, UniProt P08485).
T1 sequence (P08485 1-478): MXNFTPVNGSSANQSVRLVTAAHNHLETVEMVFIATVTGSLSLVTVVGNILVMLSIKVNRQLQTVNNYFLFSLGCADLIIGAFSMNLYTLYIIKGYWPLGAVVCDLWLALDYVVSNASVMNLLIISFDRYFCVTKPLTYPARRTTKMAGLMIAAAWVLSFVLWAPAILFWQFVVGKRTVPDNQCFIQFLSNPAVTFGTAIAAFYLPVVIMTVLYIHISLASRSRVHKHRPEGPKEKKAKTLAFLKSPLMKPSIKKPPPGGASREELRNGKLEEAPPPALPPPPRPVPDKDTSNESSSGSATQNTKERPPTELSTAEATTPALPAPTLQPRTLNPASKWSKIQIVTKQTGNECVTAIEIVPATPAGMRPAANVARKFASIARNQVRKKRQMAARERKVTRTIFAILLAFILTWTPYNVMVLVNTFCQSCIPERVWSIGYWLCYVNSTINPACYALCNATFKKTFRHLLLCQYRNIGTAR
The conditions noted are these: rat M4/Gqi5-expressing cells, first generation compounds.

The target in series [2] is T1, rat M4.
The conditions of series [3]: lead compound.
For series [4] the following is noted: rat, microsomes, 1.5 h.
The conditions of series [5]: human, microsomes, 1.5 h.

The structures appear in SMILES notation. Read-outs that look alike come from different tables or passages of the source.

Regarding `Cc1cc(C)c2c(N)c(C(=O)NCc3ccc(Cl)cc3)sc2n1` [Compd 1], the brain penetration result is on record as “lack of brain penetration”. Also, the EC50 in series [1] was 400 nM. For the same molecule, the “leftward shift of an ACh CRC” value in series [2] (Ca2+ mobilization assay in rat M4/Gqi5-expressing cells) is 47 fold. Moreover, the “ACh CRC fold-shift” value in series [2] (first generation compounds, previously reported) was 47 x. Also, in series [3], the solubility entry was “solubility issues”.
With `COc1ccc(CNC(=O)c2sc3nc(C)cc(C)c3c2N)cc1` [Compd 3], the parent remaining in series [4] and in series [5] was under 10% throughout. The brain penetration entry (in vivo) is on record as “centrally penetrating”.
